# Experimental data published in US9416141B2 (University of Washington through its Center for …, priority 2012, dated 2016).
# Where a name gives a salt, the structure may show the parent alone.
# Tested on: hair cells
# Assay: Hair cell toxicity assay in zebrafish (neomycin-induced hair cell death, DASPEI staining of neuromasts)
# Assay type: in vivo
# Conditions: Danio rerio; for Emax at 25 µM: maximum observed @ 25 μM test compound; for EC50: zebrafish larvae 5-7 dpf, 1 h pre-treatment, then 200 micromolar neomycin + test compound 30 min, read-out: HC50 (concentration that would produce 50% hair cell survival); for Emax at 8.3 µM: maximum observed @ 8.3 μM test compound; for Emax at 0.9 µM: maximum observed @ 0.9 μM test compound; for Emax at 2.8 µM: maximum observed @ 2.8 μM test compound
# Summary of the method: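 Hair cell survival, as % of untreated controls, came from DASPEI scoring (0-2 each, ten neuromasts on one side) in 5-7 dpf larvae. These had 1 h compound pre-exposure (0.010-25 μM), then 200 μM neomycin with compound for 30 min. HCmax is peak protection; HC50 interpolated between flanking concentrations only when ≥50% survive.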
# [1] = 200 micromolar neomycin, read-out: Max HC Protection (HCmax, % hair cell survival)
SMILES,Emax at 25 µM [1] [%],EC50 [nM],other results
"NC(=O)c1c(NC(=O)Nc2ccc(Cl)cc2)sc2c1CCN(CCC(=O)O)C2 [Example 52, 3-{3-Carbamoyl-2-[3-(4-chlorophenyl)ureido]-4,5-dihydrothieno[2,3-c]pyridin-6(7H)-yl}propanoic acid trifluoroacetate]",33,,
"NC(=O)c1c(NC(=O)Nc2ccc(Cl)cc2)sc2c1CCN(CCCNC(=O)CCc1cccnc1)C2 [Example 211, 2-{[(4-chlorophenyl)carbamoyl]amino}-6-{3-[3-(pyridin-3-yl)propanamido]propyl}-4H,5H,6H,7H-thieno[2,3-c]pyridine-3-carboxamide]",95,< 1000,
"NC(=O)c1c(NC(=O)Nc2ccc(Cl)cc2)sc2c1CC[N+]1(CCCC1)C2 [Example 138, 3′-Carbamoyl-2′-[3-(4-chlorophenyl)ureido]-5′,7′-dihydro-4′H-spiro[pyrrolidine-1,6′-thieno[2,3-c]pyridin]-1-ium bromide]",94,< 1000,
"NC(=O)c1c(NC(=O)Nc2ccc(Cl)cc2)sc2c1CC[N+](CCCO)(CCCO)C2 [Example 201, 3-Carbamoyl-2-[3-(4-chlorophenyl)ureido]-6,6-bis(3-hydroxypropyl)-4,5,6,7-tetrahydrothieno[2,3-c]pyridin-6-ium chloride]",,< 1000,"Emax at 2.5 µM (maximum observed @ 2.5 μM test compound, 200 micromolar neomycin, read-out: Max HC Protection (HCmax, % hair cell survival)): 102%"
"CN1C2CCC1c1sc(NC(=O)Nc3ccc(Cl)cc3)c(C(N)=O)c1C2 (racemic) [Example 125, (+/−)-2-[3-(4-chlorophenyl)ureido)-9-methyl-5,6,7,8-tetrahydro-4H-5,8-epiminocyclohepta[b]thiophene-3-carboxamide hydrochloride]",,< 1000,Emax at 8.3 µM [1]: 99%
"CCN1CCc2c(sc(NC(=O)Nc3ccc(Cl)cc3)c2-c2nc(C)no2)C1 [Example 103, 1-(4-chlorophenyl)-3-[6-ethyl-3-(3-methyl-1,2,4-oxadiazol-5-yl)-4,5,6,7-tetrahydrothieno[2,3-c]pyridin-2-yl]urea hydrochloride]",,,Emax at 0.9 µM [1]: 12%
"CCOC(=O)CCN1CCc2c(sc(NC(=O)Nc3ccc(Cl)cc3)c2C(N)=O)C1 [Example 56, Ethyl 3-{3-carbamoyl-2-[3-(4-chlorophenyl)ureido]-4,5-dihydrothieno[2,3-c]pyridin-6(7H)-yl}propanoate hydrochloride]",,,Emax at 2.8 µM [1]: 48%
"CC(C)C(C)[N+]1(C)CCc2c(sc(NC(=O)Nc3ccc(Cl)cc3)c2C(N)=O)C1 (racemic) [Example 204, (+/−)-3-Carbamoyl-2-[3-(4-chlorophenyl)ureido]-6-methyl-6-(3-methylbutan-2-yl)-4,5,6,7-tetrahydrothieno[2,3-c]pyridin-6-ium chloride]",,,Emax at 8.3 µM [1]: 77%
"CC(C)C[N+]1(C)CCc2c(sc(NC(=O)Nc3ccc(Cl)c4ccccc34)c2C(N)=O)C1 (centres unmarked) [Example 181, 3-Carbamoyl-2-[3-(4-chloronaphthalen-1-yl)ureido]-6-isobutyl-6-methyl-4,5,6,7-tetrahydrothieno[2,3-c]pyridin-6-ium iodide]",93,1000 to 10000,
"C[N+]1(C2CCc3c(sc(NC(=O)Nc4ccc(Cl)cc4)c3C(N)=O)C2)CCC1 (centres unmarked) [Example 170, 1-{3-Carbamoyl-2-[3-(4-chlorophenyl)ureido]-4,5,6,7-tetrahydrobenzo[b]thiophen-6-yl}-1-methylazetidin-1-ium iodide]",85,1000 to 10000,
"CCN1CCc2c(sc(NC(=O)Nc3cccc4c3ccn4C)c2C(N)=O)C1 [Example 84, 6-Ethyl-2-[3-(1-methyl-1H-indol-4-yl)ureido]-4,5,6,7-tetrahydrothieno[2,3-c]pyridine-3-carboxamide hydrochloride]",4,,
"CCN1CCc2c(ccc(NC(=O)Nc3ccc(Cl)cc3)c2C(N)=O)C1 [Example 112, 6-[3-(4-chlorophenyl)ureido]-2-ethyl-1,2,3,4-tetrahydroisoquinoline-5-carboxamide hydrochloride]",49,,
"CCN1CCc2c(sc(N(CC)C(=O)Nc3ccc(Cl)cc3)c2C(N)=O)C1 [Example 113, 2-[3-(4-chlorophenyl)-1-ethylureido]-6-ethyl-4,5,6,7-tetrahydrothieno[2,3-c]pyridine-3-carboxamide hydrochloride]",,,Emax at 2.8 µM [1]: 12%
"CCN1CCc2c(sc(NC(=O)Nc3cccc(F)c3)c2C(N)=O)C1 [Example 71, 6-Ethyl-2-[3-(3-fluorophenyl)ureido]-4,5,6,7-tetrahydrothieno[2,3-c]pyridine-3-carboxamide hydrochloride]",45,,
"NC(=O)c1c(NC(=O)Nc2ccc(Cl)cc2)sc2c1CCN(CC(F)(F)F)C2 [Example 89, 2-[3-(4-Chlorophenyl)ureido]-6-(2,2,2-trifluoroethyl)-4,5,6,7-tetrahydrothieno[2,3-c]pyridine-3-carboxamide]",,,Emax at 8.3 µM [1]: 18%
"CCN1CCc2c(sc(NC(=O)Nc3ccc(Cl)cc3)c2C#N)C1 [Example 87, 1-(4-Chlorophenyl)-3-(3-cyano-6-ethyl-4,5,6,7-tetrahydrothieno[2,3-c]pyridin-2-yl)urea]",11,,
"CC(C)NC(=O)CCCN1CCc2c(sc(NC(=O)Nc3ccc(Cl)cc3)c2C(N)=O)C1 [Example 25, 2-[3-(4-Chlorophenyl)ureido]-6-[4-(isopropylamino)-4-oxobutyl]-4,5,6,7-tetrahydrothieno[2,3-c]pyridine-3-carboxamide hydrochloride]",,1000 to 10000,Emax at 2.8 µM [1]: 57%
"NC(=O)c1c(NC(=O)Nc2ccc(Cl)cc2)sc2c1CCN(CC1CCC1)C2 [Example 12, 2-[3-(4-Chlorophenyl)ureido]-6-(cyclobutylmethyl)-4,5,6,7-tetrahydrothieno[2,3-c]pyridine-3-carboxamide hydrochloride]",,1000 to 10000,Emax at 8.3 µM [1]: 73%
"C[N+]1(CC2CCCCC2)CCc2c(sc(NC(=O)Nc3ccc(Cl)cc3)c2C(N)=O)C1 (centres unmarked) [Example 152, 3-Carbamoyl-2-[3-(4-chlorophenyl)ureido]-6-(cyclohexylmethyl)-6-methyl-4,5,6,7-tetrahydrothieno[2,3-c]pyridin-6-ium iodide]",,< 1000,Emax at 0.9 µM [1]: 78%
"NC(=O)c1c(NC(=O)Nc2ccc(Cl)cc2)sc2c1CCOC2 [Example 92, 2-[3-(4-Chlorophenyl)ureido]-5,7-dihydro-4H-thieno[2,3-c]pyran-3-carboxamide]",,,Emax at 2.8 µM [1]: 22%
"CC(C(=O)O)N1CCc2c(sc(NC(=O)Nc3ccc(Cl)cc3)c2C(N)=O)C1 (racemic) [Example 62, (+/−)-2-{3-Carbamoyl-2-[3-(4-chlorophenyl)ureido]-4,5-dihydrothieno[2,3-c]pyridin-6(7H)-yl}propanoic acid hydrochloride]",29,,
"NC(=O)c1c(NC(=O)Nc2ccc(Cl)cc2)sc2c1CC1CCC2N1 (single isomer, unassigned; (+)) [Example 130, (+)-2-[3-(4-Chlorophenyl)ureido]-5,6,7,8-tetrahydro-4H-5,8-epiminocyclohepta[b]thiophene-3-carboxamide hydrochloride]",,,Emax at 2.8 µM [1]: 40%
"CC(C(=O)OC(C)(C)C)N1CCc2c(sc(NC(=O)Nc3ccc(Cl)cc3)c2C(N)=O)C1 (racemic) [Example 59, (+/−)-tert-Butyl 2-{3-carbamoyl-2-[3-(4-chlorophenyl)ureido]-4,5-dihydrothieno[2,3-c]pyridin-6(7H)-yl}propanoate]",,,Emax at 8.3 µM [1]: 40%
